# *1 amine or outer side, *2 acyl side, *3 side chain or, on linkers, in order; H or OH if unused. Where a SMILES comes first, the peptide text is derived from it. Bridges are numbered along the chain shown (N, C = ends). [ ]: non-standard residue; d: D form. The star is where a group is joined. NODAGA = O=C(O)CN1CCN(CC(=O)O)CCN(C(CCC(=O)*)C(=O)O)CC1; X1 = NC(=O)Nc1ccc(CC(N[*:1])C(=O)[*:2])cc1; Phe(4-Cl) = N[CH](Cc1ccc(Cl)cc1)C(=O)O
# Legend:
# [1] = in vivo; settings: athymic nude Foxn1^nu, mouse, total radioactivity
# Procedure: (§1) Unless otherwise specified, the in vivo studies were performed on athymic nude Foxn1^nu 4-6 weeks-old mice. Animals were injected in the shoulder with HEK-SST2 cells (10^7 cells/200 μL) suspended in PBS. The in vivo experiments were performed when tumors reached a volume between 100-500 mm. At the intervention, all mice were between 7 and 11 weeks old.
# (§2) The specificity study was performed parallel to pharmacokinetics studies. For this reason, NODAGA-LM3 was radiolabeled with ^64Cu.
# (§3) The specificity of [^64Cu]Cu-NODAGA-LM3 for SSTR2-expressing tissues was evaluated in HEK-SST2 xenograft mice through a blocking study. The mice were administered with 0.15 MBq of [^64Cu]Cu-NODAGA-LM3 co-injected with a 2000-fold excess of DOTA-LM3 as a blocking agent. The mice were sacrificed 4 hours post-injection, and the organs were collected. weighed, and counted in a gamma counter.
# [2] = system: HEK-SST2 xenograft mice; settings: athymic nude Foxn1^nu, mouse, in vivo, 4 h
# Procedure: as §1, §2, §3
# [3] = format: physicochemical; settings: pH 7.4
# Procedure: The mixture was vortexed for 30 min and then centrifuged at 3000 rpm to achieve phase separation. Aliquots from each phase were collected and measured in a gamma counter. The distribution coefficient was calculated as the average logarithmic values of the ratio between the radioactivity in the organic and the PBS phase.
smiles,measurement,setting,value
"CC(O)C1NC(=O)C(CCCCN)NC(=O)C(Cc2ccc(NC(N)=O)cc2)NC(=O)C(Cc2ccc(O)cc2)NC(=O)C(NC(=O)C(Cc2ccc(Cl)cc2)NC(=O)CCC(C(=O)O)N2CCN(CC(=O)O)CCN(CC(=O)O)CC2)CSSCC(C(=O)NC(Cc2ccc(O)cc2)C(N)=O)NC1=O (stereo not shown) [[^61Cu]Cu-NODAGA-LM3, metal not drawn] ({NODAGA}-[Phe(4-Cl)]CY[X1]KTCY-NH2; disulfide 2-7; configuration not given here)",tissue uptake at 4 h,"[1]; 0.15 MBq, Uptake Bone",0.39 ± 0.07 %ID/g
same,tissue uptake at 4 h,"[1]; 0.15 MBq, Uptake Pancreas",0.55 ± 0.1 %ID/g
same,tissue uptake at 4 h,"[1]; 0.15 MBq, Uptake Stomach",1.31 ± 0.55 %ID/g
same,tissue uptake at 4 h,"[1]; 0.15 MBq, Uptake Tumor",37.9 ± 3.43 %ID/g
same,tissue uptake at 4 h,[1]; Uptake Blood,0.11 ± 0.05 %ID/g
same,tissue uptake at 4 h,[1]; Uptake Bone,0.01 ± 0.01 %ID/g
same,tissue uptake at 4 h,[1]; Uptake Heart,0.14 ± 0.07 %ID/g
same,tissue uptake at 4 h,[1]; Uptake Intestine,0.46 ± 0.01 %ID/g
same,tissue uptake at 4 h,[1]; Uptake Kidney,3.52 ± 0.93 %ID/g
same,tissue uptake at 4 h,[1]; Uptake Liver,0.96 ± 0.14 %ID/g
same,tissue uptake at 4 h,[1]; Uptake Lung,0.67 ± 0.25 %ID/g
same,tissue uptake at 4 h,[1]; Uptake Muscle,0.03 ± 0.01 %ID/g
same,tissue uptake at 4 h,[1]; Uptake Pancreas,0.12 ± 0.03 %ID/g
same,tissue uptake at 4 h,[1]; Uptake Spleen,0.21 ± 0.06 %ID/g
same,tissue uptake at 4 h,[1]; Uptake Stomach,0.43 ± 0.14 %ID/g
same,tissue uptake at 4 h,[1]; Uptake Tumor,0.52 ± 0.18 %ID/g
same,tissue uptake at 4 h,"[1]; female, iv, 0.15 MBq, Uptake Intestine",0.46 ± 0.04 %ID/g
same,tissue uptake at 4 h,"[1]; female, iv, 0.15 MBq, Uptake Kidney",4.41 ± 0.74 %ID/g
same,tissue uptake at 4 h,"[1]; female, iv, 0.15 MBq, Uptake Lung",0.6 ± 0.17 %ID/g
same,tissue uptake at 4 h,"[1]; female, iv, 0.15 MBq, Uptake Spleen",0.21 ± 0.1 %ID/g
same,Uptake Blood,[2],0.10 ± 0.02 % IA/g
same,Uptake Heart,[2],0.20 ± 0.01 % IA/g
same,Uptake Liver,[2],0.90 ± 0.20 % IA/g
same,Uptake Muscle,[2],0.02 ± 0.01 % IA/g
same,logD,[3],-2.95 ± 0.08
